According to article PMC6721824, “IGFs Potentiate TAC3-induced SLα Expression via Upregulation of TACR3 Expression in Grass Carp Pituitary Cells” (Cells, 2019):
Where two headings read alike, the source gives them in different places. Peptide text beside a SMILES is read from it.

Tests used:
[1] = tested on: SLα mRNA expression in grass carp pituitary cells; experiment: SLα mRNA expression (qPCR) in grass carp pituitary cells; assay type: cell-based, grass carp (Ctenopharyngodon idellus); details: for enhancement of the stimulatory effects of TAC3 gene products on SLα mRNA expression: IGF-I/-II cotreatment
Description: (§1) Grass carp pituitary cells prepared by the trypsin/DNase digestion method were seeded in 24-well plates at ~2.5 × 10^6 cells/mL/well. On the following day, drug treatment was initiated by replacing the old medium with a testing medium with the appropriate levels of test substances, and the cells were then allowed to incubate at 28 °C for the duration as indicated. After drug treatment, total RNA was extracted from individual wells and reversely transcribed as above. The RT samples obtained were subjected to qPCR using a LightCycler SYBR Green I Kit (Roche, Stockholm, Sweden) with the primers mentioned above. In these studies, serial dilutions of plasmid DNA containing the ORF of SLα (GeneBank no.: EF372074) and TACR3 (GenBank no: JQ254913) cDNA were used as the standards for data calibration. Parallel real-time PCR measurement of β-actin was also conducted in individual experiments to serve as the internal control.
(§2) For real-time PCR of SLα and TACR3 mRNA measurement, standard curves with a dynamic range of ≥10^5 and correlation coefficient of ≥0.95 were used for data calibration with the RotorGene-Q software 1.7 (Qiagen) under unsupervised mode. SLα and TACR3 mRNA data were normalized with the β-actin transcript level and then were transformed as a percentage of the mean value in the control group without drug treatment (as “%Ctrl”). For the calcium bioluminescence signals and raw data obtained from luciferase reporter assays, the luminescence signals or luciferase activity was expressed as “relative luminescence unit (RLU)” registered by the fluorescence plate reader. For individual samples of the luciferase reporter assay, the firefly luciferase activity detected was routinely normalized against Renilla Luciferase activity expressed in the same well and expressed as the luciferase activity ration (as “Luc Ratio”). For receptor binding assay, specific binding of FAM-NKBa was measured in terms of “Arbitrary Fluorescence Unit (AFU)”. The six replicates presented (expressed as Mean ± SEM) were pooled results from two individual experiments prior to statistical analysis; all data were tested for normality of distribution using the Shapiro–Wilk normality test. Then, one-way ANOVA and two-way ANOVA were used to test the significant difference according to different experiment groups. The differences between groups were considered as significant at P < 0.05 (“*”) or highly significant at P < 0.01 (“**”).

[2] = tested on: TACR3 mRNA expression in grass carp pituitary cells; experiment: TACR3 mRNA expression (qPCR) in grass carp pituitary cells; assay type: cell-based, grass carp (Ctenopharyngodon idellus); details: for TACR3 mRNA expression, time course: 100 nM, from 1 h to 24 h (Figure 3B); for TACR3 mRNA expression, dose-dependence: 24-h incubation, 0.01–100 nM (Figure 3C); for effect on IGF-I-induced TACR3 mRNA expression: 24 h cotreatment with IGF-I (10 nM), inhibitors 10 µM, wortmannin 1 µM, rapamycin 20 nM
Description: as §1, §2

[3] = molecular target: T1, grass carp TACR3 (Ctenopharyngodon idella, UniProt A0A075BDW2); experiment: Fluorescence-based receptor binding assay, displacement of FAM-NKBa tracer; design: species or system grass carp (Ctenopharyngodon idellus); details: then FAM-NKBa (10 nM) 30 min, 37 °C, read-out: IC50 for displacing FAM-NKBa binding
T1 sequence (A0A075BDW2 1-395): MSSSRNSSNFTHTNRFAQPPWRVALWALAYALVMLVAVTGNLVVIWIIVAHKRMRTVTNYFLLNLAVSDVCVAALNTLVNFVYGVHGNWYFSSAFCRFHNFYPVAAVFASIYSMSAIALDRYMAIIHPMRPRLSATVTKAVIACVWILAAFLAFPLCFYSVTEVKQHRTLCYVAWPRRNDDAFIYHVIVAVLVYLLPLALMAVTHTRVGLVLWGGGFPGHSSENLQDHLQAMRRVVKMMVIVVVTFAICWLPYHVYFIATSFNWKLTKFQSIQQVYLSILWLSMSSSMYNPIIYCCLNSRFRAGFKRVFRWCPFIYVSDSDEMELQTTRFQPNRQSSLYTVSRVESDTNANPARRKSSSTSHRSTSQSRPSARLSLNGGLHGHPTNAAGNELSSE
Description: The cells were then harvested and seeded onto 24-well plates at a density of 0.1 million/well and incubated at 37 °C under 5% CO2 for 24 h prior to the experiments. On the day of the experiments, the culture medium was aspirated and replaced with 500 μL serum-free DMEM with or without appropriated levels of unlabeled competitors. Cells were then allowed to incubate for 30 min at 37 °C under 5% CO2 and saturated humidity. FAM Carboxyfluorescein-labeled NKBa, namely FAM-NKBa, was used as a tracer for receptor binding experiments, and a 50-μL volume of FAM-NKBa (10 nM) was added into individual wells. After further incubation for 30 min at 37 °C, the cells were washed twice and with 500 μl PBS each to remove unbound ligands. […] The supernatant from individual wells was then collected in a 96-wells black view plate, and fluorescence signals indicative of FAM-NKBa binding were registered using FluoStar OPTIMA with excitation at 490 nm and emission at 520 nm.
For receptor binding assay, specific binding of FAM-NKBa was measured in terms of “Arbitrary Fluorescence Unit (AFU)”. The six replicates presented (expressed as Mean ± SEM) were pooled results from two individual experiments prior to statistical analysis; all data were tested for normality of distribution using the Shapiro–Wilk normality test. […]

[4] = tested on: MEK1/2; experiment: Western blot for signaling kinases: MEK1/2 phosphorylation; assay type: cell-based, grass carp (Ctenopharyngodon idellus); details: grass carp pituitary cells, senktide (1 µM) + IGF-I (50 nM), 15 min
Description: (§3) The pituitary cells derived from twenty grass carp pituitaries were seeded in 24-well culture plates at a density of 2.5 × 10^6 cells/mL/well and incubated with drug treatment for the duration as indicated in the individual experiments. […] After drug treatment, the culture medium from individual wells was removed and the remaining cells were rinsed with PBS and lysed in RIPA buffer (50 mM Tris^·HCl, 150 mM NaCl, 1 mM EDTA, 1% NP-40, and 0.25% Na deoxycholate), containing a final concentration of 1×protease/phosphatase inhibitor cocktail (Roche). The cell lysate was cleared by high-speed centrifugation at 4 °C, the clear supernatant was resolved in 10% gel by SDS-PAGE, and Western blotting was conducted according to the procedures as previously described. The antibodies that can be detected, the phosphorylated and total ERK1/2 (1:5,000), MEK1/2 (1:1,000), p38 MAPK (1:1,000), and Akt (1:1,000), were used at the dilutions recommended by the manufactures. […] Chemiluminescence signals for target immune-reactivity were detected using SuperSignal West Pico (PIERCE, Rockford, IL, USA) as the substrate and quantified using the IC440 CF Digital Science Image Station (Eastman Kodak, Rochester, NY, USA). […]

[5] = tested on: Akt; experiment: Western blot for signaling kinases: Akt phosphorylation; assay type: cell-based, grass carp (Ctenopharyngodon idellus); details: grass carp pituitary cells, senktide (1 µM) + IGF-I (50 nM), 15 min
Description: as §3

[6] = tested on: p38MAPK; experiment: Western blot for signaling kinases: p38MAPK phosphorylation; assay type: cell-based, grass carp (Ctenopharyngodon idellus); details: grass carp pituitary cells, senktide (1 µM) + IGF-I (50 nM), 15 min
Description: as §3

[7] = molecular target: T1, grass carp TACR3; experiment: CRE-Luc luciferase reporter (cAMP pathway) in HEK-293 cells with stable expression of grass carp TACR3; assay type: cell-based, grass carp (Ctenopharyngodon idellus); details: SEM
Description: To clarify the ligand selectivity and signal transduction pathways of TACR3, functional expression of grass carp TACR3 was performed in HEK-293 cells with co-transfection of luciferase-expressing reporters targeting different signaling pathways provided by the Clontech Cell Signaling Profiling Kit (Clontech, Mountain View, CA, USA), including cAMP response element (CRE)-Luc (for cAMP pathway), activator protein-1 (AP1)-Luc (for PKC pathway), nuclear factor of activated T-cells (NFAT)-Luc (for Ca^2+/calcineurin pathway), and serum responsive element (SRE)-Luc (for MAPK pathway) [29]. […]
For the calcium bioluminescence signals and raw data obtained from luciferase reporter assays, the luminescence signals or luciferase activity was expressed as “relative luminescence unit (RLU)” registered by the fluorescence plate reader. For individual samples of the luciferase reporter assay, the firefly luciferase activity detected was routinely normalized against Renilla Luciferase activity expressed in the same well and expressed as the luciferase activity ration (as “Luc Ratio”). […] The six replicates presented (expressed as Mean ± SEM) were pooled results from two individual experiments prior to statistical analysis; all data were tested for normality of distribution using the Shapiro–Wilk normality test. […]

[8] = tested on: ERK1/2; experiment: Western blot for signaling kinases: ERK1/2 phosphorylation; assay type: cell-based, grass carp (Ctenopharyngodon idellus); details: grass carp pituitary cells, senktide (1 µM) + IGF-I (50 nM), 15 min
Description: as §3

## IGF-II: Human insulin-like growth factor II, purchased from Sigma
[1]
  enhancement of the stimulatory effects of TAC3 gene products on SLα mRNA expression: up to 8 fold increase
[2]
  TACR3 mRNA expression, time course: significantly stimulate TACR3 mRNA expression
  TACR3 mRNA expression, dose-dependence: trigger TACR3 mRNA expression in a concentration-related fashion

## GR64349: TACR2-specific agonist (NK2R agonist, Tocris)
[3]; HEK-293 cells with stable expression of grass carp TACR3, 30 min pretreatment with competitor, bound given in μM
  IC50: > 10 µM

## IGF-I: Human insulin-like growth factor I, purchased from Sigma
[1]
  enhancement of the stimulatory effects of TAC3 gene products on SLα mRNA expression: up to 8 fold increase
[1]; NKBRPa 1 µM, IGF-I 100 nM (Figure 4A)
  SLα mRNA levels, treatment alone, time course: induce SLα mRNA levels
[1]; NKBRPa (1 µM) + IGF-I (100 nM), especially after 12–24 h
  NKBRPa-induced SLα transcript level enhanced by IGF-I cotreatment: up to 10 folds basal
[2]
  TACR3 mRNA expression, time course: significantly stimulate TACR3 mRNA expression
  TACR3 mRNA expression, dose-dependence: trigger TACR3 mRNA expression in a concentration-related fashion

## CSCC[C@H](NC(=O)[C@H](CC(C)C)NC(=O)CNC(=O)[C@H](Cc1ccccc1)N(C)C(=O)[C@H](Cc1ccccc1)NC(=O)[C@H](CC(=O)O)NC(=O)CCC(=O)O)C(N)=O [senktide] (HELM PEPTIDE1{[O=C(O)CCC(=O)[*:2]].D.F.[meF].G.L.M.[am]}$$$$V2.0; N-terminus and C-terminus assumed)
[4]
  effect of cotreatment on IGF-I-induced protein phosphorylation of MEK1/2: did not alter
[1]; senktide 1 µM, IGF-I/-II 100 nM (Figure 4E)
  SLα mRNA expression on cotreatment of TACR3 agonist with IGF-I or IGF-II: mimic the synergistic effects
[5]
  effect of cotreatment on IGF-I-induced protein phosphorylation of Akt: noticeable potentiating effect
[3]; HEK-293 cells with stable expression of grass carp TACR3, 30 min pretreatment with competitor (0.1–1000 nM), fluorescence 490/520 nm
  IC50: 0.0712 ± 0.00923 µM
[6]
  effect of cotreatment on IGF-I-induced protein phosphorylation of p38MAPK: did not alter
[7]
  EC50: 21.3 ± 3.2 nM
[8]
  effect of cotreatment on IGF-I-induced protein phosphorylation of ERK1/2: did not alter

## CO[C@H]1C[C@@H]2CC[C@@H](C)[C@@](O)(O2)C(=O)C(=O)N2CCCC[C@H]2C(=O)O[C@H]([C@H](C)C[C@@H]2CC[C@@H](O)[C@H](OC)C2)CC(=O)[C@H](C)/C=C(\C)[C@@H](O)[C@@H](OC)C(=O)[C@H](C)C[C@H](C)/C=C/C=C/C=C/1C [rapamycin]
[2]
  effect on IGF-I-induced TACR3 mRNA expression: notably suppressed

## COC[C@H]1OC(=O)c2coc3c2[C@@]1(C)C1=C(C3=O)[C@@H]2CCC(=O)[C@@]2(C)C[C@H]1OC(C)=O [wortmannin]
[2]
  effect on IGF-I-induced TACR3 mRNA expression: notably suppressed
